Data on three molecules can be found in US20160000849A1, “COMPOSITION FOR REMEDYING OR TREATING RHEUMATOID ARTHRITIS AND OSTEOARTHRITIS” (HANPOONG PHARM & FOODS CO., LTD., priority 2013, published 2016).

The series relates to normal 293T cells, rat chondrocytes and human chondrocytes (HTB-94). The procedure: The stabilities of glucosamine-HCl, glucosamine-sulfate, celecoxib and HPL-1 were analyzed by an MTT assay using normal 293T cells, rat chondrocytes and human chondrocytes (HTB-94).

With `Cc1ccc(-c2cc(C(F)(F)F)nn2-c2ccc(S(N)(=O)=O)cc2)cc1` [celecoxib], the “concentration at which cytotoxicity was observed” value (human, rat) is ≥ 10000 ng/mL.
As to `Cl.N[C@H]1C(O)O[C@H](CO)[C@@H](O)[C@@H]1O` (stereo partly drawn) [glucosamine-HCl], the cytotoxicity result was “no cytotoxicity was observed”.
Turning to `N[C@H]1C(O)O[C@H](CO)[C@@H](O)[C@@H]1O.O=S(=O)(O)O` (stereo partly drawn) [glucosamine-sulfate], the cytotoxicity entry was “no cytotoxicity was observed”.
